Source: paper PMC10538940, “Evaluating Scalable Supervised Learning for Synthesize-on-Demand Chemical Libraries” (Journal of Chemical Information and Modeling, 2023)

molecular target: PriA-SSB (Klebsiella pneumoniae subsp. pneumoniae, UniProt A6TGC5); assay: PriA-SSB AlphaScreen (AS) dose-response screen of Enamine REAL compounds; type: biochemical, Klebsiella pneumonia; conditions: not given
Procedure: We screened the MLPCN compound library using an AlphaScreen (AS) assay at a single concentration (33.3 μm) following the same protocol previously used to screen the LC1234 libraries.[27],[28] Briefly, library compounds and controls were dispensed from 10 mM DMSO stocks into white 1536-well plates with an Echo 550 acoustic liquid handler. Next, 3 μL of a master mix was added to each well using a Mantis liquid handler with a high-volume silicone chip to yield a final reaction mixture containing 10 mM HEPES-HCl (pH 7.5), 150 mM NaCl, 1 mM MgCl2, 10 mM dithiothreitol, 1 mg/mL bovine serum albumin, 0.01% Triton X-100, 0.1 μM Klebsiella pneumonia PriA (with N-terminal 6×His tag), 0.1 μM Biotinylated-SSBct (N-Biotin-Trp-Met-Asp-Phe-Asp-Asp-Asp-Ile-Pro-Phe-C), 5 μg/mL of both AS acceptor and donor beads, and 33.3 μm of compound. For positive and negative control wells, the compound was replaced with 25 μM SSBct peptide (N-Trp-Met-Asp-Phe-Asp-Asp-Asp-Ile-Pro-Phe-C) or 25 μM ΔFSSBct (N-Trp-Met-Asp-Phe-Asp-Asp-Asp-Ile-Pro-C), respectively. Plates were centrifuged briefly and rocked for an hour at room temperature. Then, the AS signal of each well was measured with a PheraStar plate reader using a 0.1 s settling time, a 0.3 s excitation, a 0.04 s delay, and a 0.6 s integration time. AS signals for each well were adjusted as previously described to reduce the impact of plate and edge effects.[28] We calculated a Z′ factor for each plate[61] and repeated plates with Z′ < 0.5. In addition, we calculated the % inhibition relative to the controls for each compound. We retested compounds with ≥35% inhibition that also passed PAINS filters[62],[63] with the same assay to confirm activity.
All 68 compounds were initially screened in four replicates at eight concentrations ranging from 515.6 nm to 66 μm. We defined compounds whose median % inhibition at 33 μm was at least 50%, the same threshold used for the AMS screen, as initial hits. We repeated the dose–response curve screens for two additional rounds of ten compounds each, expanding the range of concentrations tested to improve the quality of the curve fits (Appendix A.9). We defined confirmed hits as those with a dose–response curve in curve class[82] 1.2 or in curve class 2.2 with an IC50 95% upper confidence limit within the tested range of concentrations. We used the Collaborative Drug Discovery Vault software[83] to fit dose–response curves, calculate IC50 values and the 95% upper and lower confidence limits, and define curve classes. […]
A.9 Enamine REAL Dose-Response Curves
We generated three sets of dose-response curves: eight-point curves with four replicates for all 68 Enamine compounds, 16-point curves with eight replicates for 10 compounds, and another set of 16-point curves with six replicates for 10 compounds. The eight-point dose-response curves started with an initial concentration of 66 µm and progressively divided the concentration in half until reaching 515.6 nm. Both 16-point dose-response curves started with an initial concentration of 100 µm, then 66.7 µm, and then progressively divided the concentration in half until reaching 4.2 nm. All dose-response screens followed the same protocol used for the MLPCN library. The dose-response curve images are available in our […]
We generated the 16-point dose-response curves because we were unable to reliably estab-lish IC50 values for some compounds in the eight-point screen. The minimum concentrations tested were not low enough. When reporting IC50 values and bounds in Table 4 we used the screening data from the highest-quality dose-response curve. The second set of 16-point curves were the highest quality because they had 16 concentrations and were unaﬀected by any spatial plate eﬀects. The ﬁrst set of 16-point curves were the next highest quality because they also had 16 concentrations and the most replicates. However, some of the readings at the lowest concentration in these curves were skewed due to assay spatial eﬀects at the plate […]
edge. […]

Sequence of PriA-SSB (A6TGC5 whole entry): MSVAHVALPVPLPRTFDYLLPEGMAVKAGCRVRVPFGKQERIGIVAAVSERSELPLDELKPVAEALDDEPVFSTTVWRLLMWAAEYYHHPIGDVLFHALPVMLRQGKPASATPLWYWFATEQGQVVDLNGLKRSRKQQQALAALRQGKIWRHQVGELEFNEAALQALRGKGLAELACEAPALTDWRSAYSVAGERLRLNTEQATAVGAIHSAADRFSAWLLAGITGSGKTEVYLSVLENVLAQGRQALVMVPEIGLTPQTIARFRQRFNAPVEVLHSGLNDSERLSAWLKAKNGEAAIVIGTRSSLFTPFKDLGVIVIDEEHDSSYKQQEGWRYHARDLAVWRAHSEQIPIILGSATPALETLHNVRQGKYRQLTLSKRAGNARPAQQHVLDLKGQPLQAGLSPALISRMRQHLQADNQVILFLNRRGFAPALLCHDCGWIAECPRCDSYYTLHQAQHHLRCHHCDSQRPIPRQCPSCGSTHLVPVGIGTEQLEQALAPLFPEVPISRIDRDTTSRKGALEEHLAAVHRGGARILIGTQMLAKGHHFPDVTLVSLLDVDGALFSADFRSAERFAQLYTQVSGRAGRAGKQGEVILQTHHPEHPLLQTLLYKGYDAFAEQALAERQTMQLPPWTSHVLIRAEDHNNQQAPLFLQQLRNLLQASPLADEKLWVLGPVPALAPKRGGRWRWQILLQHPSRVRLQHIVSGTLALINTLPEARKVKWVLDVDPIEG

| SMILES | IC50 [µM] |
| --- | --- |
| CC(C)N(C)S(=O)(=O)c1ccc(F)c(C(=O)Nc2nc(-c3ccccn3)cs2)c1 [Z339655406] | 6.8 |
| Cc1n[nH]c(SCC(=O)Nc2nnc(-c3ccccn3)[nH]2)n1 [Z1313381195] | 15.5 |
| O=C1CC2(CCOC2)C(C(=O)Nc2nc(-c3ccccn3)cs2)CN1 (stereo not drawn) [Z3297024656] | 12.6 |
| CC1CC(Nc2nc(-c3ccccn3)nc3c2CCC3)CC(C)N1 (stereo not drawn) [Z3395547714] | 12.1 |
| O=C(CN1C(=O)COc2ccc([N+](=O)[O-])cc21)Nc1nc(-c2ccccn2)cs1 [Z109132782] | 12.4 |

same assay, conditions: eight concentrations 515.6 nm to 66 μm; includes some initial hits not confirmed

| SMILES | Enamine Inactive (not confirmed as hit in full dose-response curves) |
| --- | --- |
| O=[N+]([O-])c1ncn(Cc2cccc3cccnc23)n1 [Z666250890] | Inactive |
| Cc1cccc2nc(CSc3cccc4cccnc34)cn12 [Z56788250] | Inactive |
| c1ccc(-c2csc(NC3COC4(CCC4)C3)n2)nc1 (stereo not drawn) [Z3295148399] | Inactive |
| CCOC(=O)c1[nH]c(C)c(C(=O)CSc2cccc3cccnc23)c1C [Z225905608] | Inactive |
| c1ccc(-c2cnc3n2CCC3)nc1 [Z3347084877] | Inactive |
| CN(C)CCN(C)c1ccc2ccc3cccnc3c2n1 [Z3557781825] | Inactive |
| Clc1cccnc1NN=Cc1ccccn1 [Z734817070] | Inactive |
| O=C(Nc1nc(-c2ccccn2)cs1)C1(C2CCCCO2)CCCO1 (stereo not drawn) [Z3075781550] | Inactive |
| c1ccc(-c2n[nH]c3ccccc23)nc1 [Z3242476057] | Inactive |
| Nc1ncc(-c2ccccn2)cn1 [Z1255380138] | Inactive |
| CC(C)c1ncc(-c2cccc3cccnc23)n1C [Z2739840324] | Inactive |
| Cc1ccc(-n2nc(C)cc2NC(=O)CSc2cccc3cccnc23)cc1 [Z71174619] | Inactive |
| OCCCN(CCO)c1ccc2ccc3cccnc3c2n1 [Z3557694708] | Inactive |
| Cc1cc(-c2ccccn2)n[nH]1 [Z3225506284] | Inactive |
| c1cc2c(c(-c3cccc4cccnc34)c1)CNC2 [Z3484513235] | Inactive |
| c1cnc2c(SCCn3cncn3)cccc2c1 [Z1116571364] | Inactive |
| O=c1[nH]c(NN=Cc2ccccn2)nc2ccccc12 [Z1407899729] | Inactive |

| SMILES | Enamine Inactive (not confirmed as hit in full dose-response curves) |
| --- | --- |
| C1=C(c2cccc3cccnc23)CCNC1 [Z3238971184] | Inactive |
| CCc1nc(C)c(CSc2cccc3cccnc23)o1 [Z2273856428] | Inactive |
| O=C(Cc1ccc(S(=O)(=O)N2CCOCC2)s1)Nc1nc(-c2ccccn2)cs1 [Z29467739] | Inactive |
| O=C(O)c1cc(C(=O)N2CCS(=O)(=O)CC2)ccn1 [Z1443864314] | Inactive |
| c1cncc(CSCc2cccc3cccnc23)c1 [Z2146195633] | Inactive |
| Fc1cccc2[nH]c(-c3ccccn3)nc12 [Z666485712] | Inactive |
| O=C(CSc1cccc2cccnc12)Nc1cccc(N2CCCC2=O)c1 [Z202503096] | Inactive |
| O=c1[nH]ncc(N/N=C/c2ccccn2)c1Cl [Z114886052] | Inactive |
| c1cnc2c(Cn3ccnc3)cccc2c1 [Z241926076] | Inactive |
| O=C(O)CSc1ccc([N+](=O)[O-])c2cccnc12 [Z285779920] | Inactive |
| CC1(C)CC(CSc2cccc3cccnc23)=NO1 [Z3638513333] | Inactive |
| Cc1nn(C(C)C)cc1-c1ccc2cccnc2c1C [Z2618185084] | Inactive |
| O=[N+]([O-])c1cc(Cl)cc(C=Nc2ccc(Cl)c3ncccc23)c1O [Z314947084] | Inactive |
| COC(C)COc1ccc2ccc3cccnc3c2n1 (stereo not drawn) [Z3634004206] | Inactive |
| CCOC(=O)c1c(C)[nH]c(C(=O)CSc2cccc3cccnc23)c1C [Z71173293] | Inactive |
| Clc1ccc(CN2CCOCCOCC2)c2ncccc12 [Z3652859018] | Inactive |
| CC(C)(C)c1ncc(-c2cccc3cccnc23)o1 [Z2998111045] | Inactive |
